From patent US7674819B2 (Warner-Lambert Company LLC, priority 2005, dated 2010)

Target: T1, androgen receptor (Homo sapiens, UniProt P10275)
T1 sequence (P10275 1-920 Q868H): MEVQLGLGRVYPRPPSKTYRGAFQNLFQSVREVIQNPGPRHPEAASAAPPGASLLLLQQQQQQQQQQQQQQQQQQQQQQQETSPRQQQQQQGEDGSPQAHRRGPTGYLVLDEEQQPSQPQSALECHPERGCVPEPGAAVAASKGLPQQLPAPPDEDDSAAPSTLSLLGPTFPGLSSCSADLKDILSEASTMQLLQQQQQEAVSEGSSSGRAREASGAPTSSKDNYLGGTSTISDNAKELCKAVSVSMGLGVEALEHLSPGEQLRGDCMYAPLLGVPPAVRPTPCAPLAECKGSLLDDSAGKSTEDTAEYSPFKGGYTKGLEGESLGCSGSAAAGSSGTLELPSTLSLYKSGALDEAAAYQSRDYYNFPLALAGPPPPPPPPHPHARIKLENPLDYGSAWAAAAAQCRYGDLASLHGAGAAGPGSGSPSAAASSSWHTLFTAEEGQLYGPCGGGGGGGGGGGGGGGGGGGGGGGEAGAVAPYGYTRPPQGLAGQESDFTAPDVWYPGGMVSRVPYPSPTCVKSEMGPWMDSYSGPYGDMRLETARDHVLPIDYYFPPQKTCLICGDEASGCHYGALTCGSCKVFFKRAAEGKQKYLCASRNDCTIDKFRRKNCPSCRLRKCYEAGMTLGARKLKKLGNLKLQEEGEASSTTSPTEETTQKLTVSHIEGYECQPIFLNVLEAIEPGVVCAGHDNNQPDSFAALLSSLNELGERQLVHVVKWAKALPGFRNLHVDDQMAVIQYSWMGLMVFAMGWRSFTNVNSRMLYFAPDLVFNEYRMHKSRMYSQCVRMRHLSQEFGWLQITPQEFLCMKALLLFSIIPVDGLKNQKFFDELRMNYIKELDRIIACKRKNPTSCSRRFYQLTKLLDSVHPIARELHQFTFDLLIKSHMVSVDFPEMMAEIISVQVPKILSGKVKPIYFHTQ
Experiment: AR Antagonist Cell Assay (MDA-MB453-MMTV clone 54-19, luciferase reporter)
Format: cell-based
Settings: inhibition of induction by DHT (final concentration at 100 μM), 17 hr; compound 0.32-1000 nM; mean of multiple tests
Summary of the method: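 MDA-MB453 breast tumour cells stably carrying an ARE-containing MMTV promoter driving firefly luciferase, plated overnight at 37° C in charcoal-treated serum medium. DHT added (final […]) and incubated 17 hr at 37° C. Luminescence read after adding luciferase buffer; values are means of multiple tests.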

| Structure (SMILES) | IC50 |
| --- | --- |
| CCCCN1CC(C)(C)C(Oc2ccc(C#N)c(C(F)(F)F)c2)C1=O (single isomer, unassigned; (+)) [Example 20, (+)-4-(1-Butyl-4,4-dimethyl-2-oxo-pyrrolidin-3-yloxy)-2-trifluoromethyl-benzonitrile] | 13 nM |
| CCCS(=O)(=O)N1CC(C)(C)C(Oc2ccc(C#N)c(C(F)(F)F)c2)C1=O (single isomer, unassigned; (+)) [Example 82, (+)-4-[4,4-Dimethyl-2-oxo-1-(propane-1-sulfonyl)-pyrrolidin-3-yloxy]-2-trifluoromethyl-benzonitrile] | 56 nM |
| CC[C@H](C)N1CC(C)(C)[C@@H](Oc2ccc(C#N)c(C(F)(F)F)c2)C1=O [Example 1, (3R,S)-(+)-4-(1-sec-Butyl-4,4-dimethyl-2-oxo-pyrrolidin-3-yloxy)-2-trifluoromethyl-benzonitrile] | 33 nM |
| CCCN1CC(C)(C)C(Oc2ccc(C#N)c(C(F)(F)F)c2)C1=O (stereo not shown) [Example 4, 4-(4,4-dimethyl-2-oxo-1-propyl-pyrrolidin-3-yloxy)-2-trifluoromethyl-benzonitrile] | 26 nM |
| CCCN1CC(C)(C)[C@@H](Oc2ccc(C#N)c(C(F)(F)F)c2)C1=O [Example 4A, (+)-4-(1-Propyl-4,4-dimethyl-2-oxo-pyrrolidin-3-yloxy)-2-trifluoromethyl-benzonitrile (E2)] | 92 nM |

Same assay, conditions: inhibition of induction by DHT (final concentration at 100 μM), 17 hr; compound 0.32-1000 nM; mean of multiple tests; read-out: IC50

| Structure (SMILES) | IC50 |
| --- | --- |
| CC1(C)CN(S(C)(=O)=O)C(=O)C1Oc1ccc(C#N)c(C(F)(F)F)c1 (stereo not shown) [Example 81, 4-(1-methanesulfonyl-4,4-dimethyl-2-oxo-pyrrolidin-3-yloxy)-2-trifluoromethyl-benzonitrile] | 199 nM |
| CC(c1ccccc1)N1CC(C)(C)C(Oc2ccc(C#N)cc2Cl)C1=O (stereo not shown) [Example 109] | 14 nM |
